Reference: patent publication US20170298051A1, “ACTIVATOR OF ADIPONECTIN RECEPTOR” (THE UNIVERSITY OF TOKYO, priority 2013, published 2017)

Tests used:
AdipoR1 [1] = molecular target: T1, AdipoR1 (Homo sapiens, UniProt Q96A54); test: Measurement of AMPK phosphorylation ability (Assay 1), HEK 293T cells, Western blotting; assay type: cell-based; design: HEK 293T cells (ATCC; CRL-3216, medium; host or cells: HEK 293T; conditions: 10 minutes
T1 sequence (Q96A54 1-375): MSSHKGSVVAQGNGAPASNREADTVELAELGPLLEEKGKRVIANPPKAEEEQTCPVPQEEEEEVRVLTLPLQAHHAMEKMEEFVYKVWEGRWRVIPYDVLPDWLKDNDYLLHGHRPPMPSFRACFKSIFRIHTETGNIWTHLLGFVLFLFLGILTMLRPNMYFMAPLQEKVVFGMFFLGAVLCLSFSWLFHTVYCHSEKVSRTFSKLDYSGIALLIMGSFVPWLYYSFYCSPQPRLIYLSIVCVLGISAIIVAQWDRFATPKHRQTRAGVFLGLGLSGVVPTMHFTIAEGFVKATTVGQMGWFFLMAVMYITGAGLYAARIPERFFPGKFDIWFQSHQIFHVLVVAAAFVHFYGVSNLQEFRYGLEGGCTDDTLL
Procedure: The AMPK phosphorylation ability of the respective compounds according to the present invention was measured by using differentiated C2C12 cells or HEK 293T cells.
HEK 293T cells (ATCC; CRL-3216, medium; DMEM, Fetal Bovine Serum (FBS)) were cultured in a 12- or 24-well plate until they reached 100% confluency (37° C., 5% CO2).
After starvation, a test compound listed in Tables 10 and 11 (concentration: 25 μM, 50 μM) was added thereto, and after 10 minutes, the medium was discarded and the plate was frozen with liquid nitrogen.
To the 12- or 24-well cell plate which had been frozen was added 100 or 150 μL of Cell lysis buffer pH 7.4 (50 mM HEPES (pH 7.4), 2 mM sodium orthovanadate, 10 mM sodium pyrophosphate, 10 mM NaF, 2 mM EDTA, 2 mM EGTA, 0.1% (v/v) NP-40, 0.2 mM PMSF), and the cells were scraped off with a cell scraper, suspended and transferred into a micro centrifugal tube. And then, the cells were ultrasonically crushed (1 second×3 times) with a sonicator. Centrifugation was performed at 4° C. at 15,000 rpm for 15 minutes, and the supernatant was recovered into a new tube.
To 100 μL of the supernatant was added 25 μL of 5× sample buffer (280 mM Tris-HCl (pH 6.9), 40% glycerol, 10% (3-mercaptoethanol, 13% SDS, a small amount of bromophenol blue) and mixed together. The rest of the supernatant was used for protein quantification, and the protein concentrations were uniformed by adding 1× sample buffer depending on the concentration of each sample.
An electrophoresis chamber was filled with 1× SDS buffer (25 mM Tris-HCl, 250 mM glycine, 0.1% SDS), and the sample was applied to a well of polyacrylamide gel. Electrophoresis was performed until the bromophenol blue in the sample reached to the bottom of the gel.
A filter paper was soaked in 1× Transfer buffer sufficiently, above which the PVDF membrane and the gel after electrophoresis were stacked in this order, and thereabove a filter paper which had been soaked in 1× Transfer buffer sufficiently was further stacked, from which an air was removed and the resultant was set in semi-dry type transfer apparatus and transferred (7V, 35 minutes).
An unnecessary portion of the blotted membrane was cutoff, and the rest was immediately soaked in blocking buffer (5% skimmed milk in Rinse buffer), and shaken at room temperature at 40 rpm for 3 hours.
After blocking, the membrane was transferred into Rinse buffer, and washed at room temperature for 10 minutes while shaking. The membrane was soaked in a primary antibody solution (AMPK alpha Antibody (Cell signaling; #2532) 1/1,000 in Rinse buffer, Phospho-AMPK alpha (Thr172) (40H9) antibody (Cell signaling; #2535) 1/1,000 in Rinse buffer), and shaken at 4° C. at 40 rpm overnight.
The membrane was soaked in a secondary antibody solution (goat anti-rabbit IgG-HRP Antibody (Santa Cruz; sc-2030) 1/2,000 in Rinse buffer), and shaken at room temperature at 40 rpm for 1 hour.
After the membrane was washed for 45 minutes in the same way as after the primary antibody reaction, the membrane was soaked in a chemiluminescent reaction solution (ECL Western Blotting Detection Reagents, GE Healthcare) for about 1 minute. An excess of the reaction solution was removed, and then the membranes were arranged on a transparent film and sandwiched with it, with which an X-ray film was exposed in a darkroom (for about several seconds to 60 seconds) to develop the film.
The X-ray film was scanned to take the image, for which the band was measured by using the image analysis software “Image J” to determine the respective amounts of pAMPK and AMPK.

AdipoR1 [2] = molecular target: T1, AdipoR1; test: Measurement of AMPK phosphorylation ability (Assay 2), HEK 293T cells with unrelated or AdipoR1 siRNA; assay type: cell-based; design: HEK 293T cells (ATCC; CRL-3216, medium; host or cells: HEK 293T
Procedure: HEK 293T cells (medium; DMEM, 10% FBS) were cultured in a 24-well plate until they reached 60% confluency (37° C., 5% CO2).
First, 1 μL of Lipofectamine RNAiMAX and 50 μL of OPTI-MEM were mixed, and then 5 μM siRNA (sense siRNA sequence: […]tt (SEQ ID NO: 1)) and 50 μL of OPTI-MEM were mixed and the resultants were left to stand at room temperature for 5 minutes. And then, the 1 μL Lipofectamine RNAiMAX/50 μL OPTI-MEM and the 5 μM siRNA/50 μL OPTI-MEM were mixed, and the resultant was left to stand at room temperature for 10 minutes, which was added to the cells.
After 5 minutes, the medium (DMEM, 10% FBS) was replaced, and after starvation on the next day, a test compound listed in Tables 10 and 11 was added thereto. After 10 minutes, the medium was discarded and the plate was frozen with liquid nitrogen.
The respective amounts of pAMPK and AMPK were determined in the same way as in the above Assay 1.

| pAMPK/AMPK (%) (AdipoR1 [1]; 25 μM) | pAMPK/AMPK (%) (AdipoR1 [1]; 50 μM) | pAMPK/AMPK (ratio) siRNA, AdipoR1 siRNA (AdipoR1 [2]) [ratio] | pAMPK/AMPK (ratio) siRNA, unrelated siRNA (AdipoR1 [2]) [ratio] | SMILES |
| --- | --- | --- | --- | --- |
| 80.42 | 84.19 | 2.56 | 2.52 | O=C(COc1ccc(Oc2ccccc2)cc1)NC1CCN(Cc2ccccc2)CC1 [Compound 36] |
| 43.00 | 55.80 | – | – | COc1ccc(OC)c(CN2CCN(C(=O)CCNC(=O)c3ccc([N+](=O)[O-])cc3)CC2)c1 [Compound 66] |
| 70.98 | 70.70 | – | – | O=C(NCCC(=O)N1CCN(Cc2cccc(C(F)(F)F)c2)CC1)c1ccc([N+](=O)[O-])cc1 [Compound 67] |
| 53.92 | 45.94 | – | – | COc1ccc(CN2CCN(C(=O)CCNC(=O)c3ccc([N+](=O)[O-])cc3)CC2)cc1F [Compound 68] |
| 78.18 | 65.40 | – | – | COc1ccccc1CN1CCN(C(=O)CCNC(=O)c2ccc3ccccc3c2)CC1 [Compound 71] |
| 42.05 | 46.92 | – | – | COc1cccc(C(=O)N2CCN(CCC(=O)NC3CC3)CC2)c1 [Compound 72] |

Continued, molecule first:

| SMILES | pAMPK/AMPK (%) (AdipoR1 [1]; 25 μM) | pAMPK/AMPK (%) (AdipoR1 [1]; 50 μM) | pAMPK/AMPK (ratio) siRNA, AdipoR1 siRNA (AdipoR1 [2]) [ratio] | pAMPK/AMPK (ratio) siRNA, unrelated siRNA (AdipoR1 [2]) [ratio] |
| --- | --- | --- | --- | --- |
| O=C(COc1ccc(C(=O)c2ccc(Cl)cc2)cc1)NC1CCN(Cc2ccccc2)CC1 [Compound 11] | 83.12 | 102.94 | 3.75 | 2.58 |
| O=C(COc1ccc(C(=O)c2ccccc2)cc1)NC1CCN(Cc2ccc(Cl)cc2)CC1 [Compound 12] | 106.36 | 82.93 | 2.47 | 2.51 |
| COc1cc(C(C)=O)ccc1OCC(=O)NC1CCN(Cc2ccc(Cl)c(Cl)c2)CC1 [Compound 15] | 88.71 | 88.18 | 3.49 | 3.27 |
| NC(=O)c1ccc(OCC(=O)NC2CCN(Cc3ccc(Cl)c(Cl)c3)CC2)cc1 [Compound 19] | 83.61 | 95.02 | 3.75 | 3.88 |
| NC(=O)c1ccc(OCC(=O)NC2CCN(Cc3ccc(Br)cc3)CC2)cc1 [Compound 21] | 81.11 | 83.12 | 1.92 | 2.34 |
| Cc1ccc(OCC(=O)NC2CCN(Cc3ccc(Cl)c(Cl)c3)CC2)cc1 [Compound 30] | 122.70 | 89.75 | 2.35 | 2.49 |
| CCc1ccc(OCC(=O)NC2CCN(C(C)c3ccccc3)CC2)cc1 (stereo not shown) [Compound 31] | 80.60 | 80.60 | 2.61 | 3.17 |
| O=C(COc1ccc(F)cc1)NC1CCN(Cc2ccc(Cl)c(Cl)c2)CC1 [Compound 32] | 88.09 | 91.40 | 4.14 | 3.38 |
| O=C(COc1ccc(Cl)cc1)NC1CCN(Cc2ccc(Cl)c(Cl)c2)CC1 [Compound 33] | 106.31 | 84.10 | 2.63 | 2.88 |
| O=C(COc1ccc(C(F)(F)F)cc1)NC1CCN(C(=O)c2ccccc2F)CC1 [Compound 34] | 80.64 | 80.50 | 2.01 | 2.32 |
| COc1ccc(CN2CCC(NC(=O)COc3ccc(C(F)(F)F)cc3)CC2)cc1F [Compound 35] | 80.77 | 83.74 | 2.01 | 3.38 |
